According to the supplement of paper PMC12463676, “Small-molecule dissolution of stress granules by redox modulation benefits ALS models” (Nature Chemical Biology, 2025):

compound: NC(=O)CCCCC1CCSS1 [lipoamide]; assay: thermal stability z-score vs DMSO; higher = more thermally stabilized by treatment; details: HeLa; lipoamide concentration 100 µM; arsenate co-treatment: none
Procedure: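 Cellular thermal proteome profiling in HeLa cells. Cells were treated with 100 µM lipoamide for 1 h, with or without 1 mM arsenate for a further 1 h, then heated to ten temperatures (37-66.3 °C), and soluble protein was quantified by TMT mass spectrometry relative to 0.1% DMSO controls. The thermal stability score (sum of log2 fold changes minus the abundance score) was transformed to a z-score; mean of n = 3 experiments.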
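Further: each temperature applied for 3 min, abundance score taken as mean log2 fold change at the two lowest temperatures, z-score obtained by mean subtraction and division by SD.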

Chain of UniProt Q9BVV7 (Q9BVV7 whole entry): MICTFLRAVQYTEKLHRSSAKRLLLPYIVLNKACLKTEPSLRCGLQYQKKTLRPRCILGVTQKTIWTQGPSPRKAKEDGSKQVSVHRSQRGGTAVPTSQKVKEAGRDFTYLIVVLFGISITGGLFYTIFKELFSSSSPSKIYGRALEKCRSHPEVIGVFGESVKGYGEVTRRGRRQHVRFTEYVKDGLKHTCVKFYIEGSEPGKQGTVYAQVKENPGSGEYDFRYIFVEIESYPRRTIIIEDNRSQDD
Chain of UniProt Q9NUQ2 (Q9NUQ2 whole entry): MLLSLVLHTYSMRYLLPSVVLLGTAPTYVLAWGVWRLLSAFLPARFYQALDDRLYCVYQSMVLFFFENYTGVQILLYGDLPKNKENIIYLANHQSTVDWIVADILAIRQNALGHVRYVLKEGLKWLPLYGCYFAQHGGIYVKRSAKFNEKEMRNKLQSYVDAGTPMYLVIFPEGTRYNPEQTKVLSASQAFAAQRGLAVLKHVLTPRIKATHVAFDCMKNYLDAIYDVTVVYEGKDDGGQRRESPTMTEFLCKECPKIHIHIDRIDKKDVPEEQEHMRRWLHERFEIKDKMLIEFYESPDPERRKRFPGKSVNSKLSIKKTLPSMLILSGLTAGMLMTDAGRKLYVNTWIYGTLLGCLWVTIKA
Chain of UniProt Q9BQE3 (Q9BQE3 whole entry): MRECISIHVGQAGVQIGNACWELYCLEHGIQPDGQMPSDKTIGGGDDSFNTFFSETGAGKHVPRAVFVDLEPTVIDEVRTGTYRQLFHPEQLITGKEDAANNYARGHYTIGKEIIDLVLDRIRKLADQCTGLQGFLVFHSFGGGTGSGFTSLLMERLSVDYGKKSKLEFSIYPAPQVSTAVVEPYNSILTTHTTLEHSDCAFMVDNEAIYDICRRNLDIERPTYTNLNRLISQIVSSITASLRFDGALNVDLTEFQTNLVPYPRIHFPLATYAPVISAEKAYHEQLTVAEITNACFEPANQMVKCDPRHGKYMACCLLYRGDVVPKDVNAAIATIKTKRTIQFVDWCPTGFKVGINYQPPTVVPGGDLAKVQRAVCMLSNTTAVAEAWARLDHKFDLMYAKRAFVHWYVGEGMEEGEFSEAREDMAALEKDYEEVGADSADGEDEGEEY
Chain of UniProt Q13443 (Q13443 whole entry): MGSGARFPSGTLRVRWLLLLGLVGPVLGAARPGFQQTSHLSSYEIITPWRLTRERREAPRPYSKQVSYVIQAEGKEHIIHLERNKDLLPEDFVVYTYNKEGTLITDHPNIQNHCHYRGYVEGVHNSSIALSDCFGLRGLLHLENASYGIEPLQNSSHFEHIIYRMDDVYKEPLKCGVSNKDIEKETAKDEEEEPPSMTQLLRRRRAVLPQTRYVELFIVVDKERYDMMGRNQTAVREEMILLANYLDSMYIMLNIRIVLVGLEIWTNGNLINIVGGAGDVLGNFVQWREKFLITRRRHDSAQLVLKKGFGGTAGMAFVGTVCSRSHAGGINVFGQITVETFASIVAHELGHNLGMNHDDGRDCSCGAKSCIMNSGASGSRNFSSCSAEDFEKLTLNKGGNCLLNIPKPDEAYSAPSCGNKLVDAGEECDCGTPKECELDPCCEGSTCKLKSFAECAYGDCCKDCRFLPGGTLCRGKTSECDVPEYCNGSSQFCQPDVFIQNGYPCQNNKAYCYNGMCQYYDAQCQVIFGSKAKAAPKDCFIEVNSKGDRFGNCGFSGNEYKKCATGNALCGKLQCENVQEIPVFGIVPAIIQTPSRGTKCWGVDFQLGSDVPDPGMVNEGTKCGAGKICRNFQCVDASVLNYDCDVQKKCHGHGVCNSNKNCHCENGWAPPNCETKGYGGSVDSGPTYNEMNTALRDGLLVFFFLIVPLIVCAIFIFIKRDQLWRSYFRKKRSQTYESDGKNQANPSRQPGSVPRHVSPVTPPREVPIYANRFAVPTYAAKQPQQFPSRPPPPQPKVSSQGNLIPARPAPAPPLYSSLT
Chain of UniProt P53985 (P53985 whole entry): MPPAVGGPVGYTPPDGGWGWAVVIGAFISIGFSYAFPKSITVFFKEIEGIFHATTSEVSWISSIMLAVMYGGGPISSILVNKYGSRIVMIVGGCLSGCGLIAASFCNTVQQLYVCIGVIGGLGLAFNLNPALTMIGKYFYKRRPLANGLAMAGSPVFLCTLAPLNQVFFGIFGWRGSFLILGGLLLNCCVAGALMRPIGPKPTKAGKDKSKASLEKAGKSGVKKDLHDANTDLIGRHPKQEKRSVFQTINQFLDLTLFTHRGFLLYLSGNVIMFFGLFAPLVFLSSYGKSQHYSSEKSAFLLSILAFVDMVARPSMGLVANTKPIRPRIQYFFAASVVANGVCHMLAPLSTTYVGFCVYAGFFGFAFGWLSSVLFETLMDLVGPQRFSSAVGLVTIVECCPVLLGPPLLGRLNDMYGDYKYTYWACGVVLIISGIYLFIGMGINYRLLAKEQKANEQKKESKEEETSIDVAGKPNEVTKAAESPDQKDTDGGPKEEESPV
Chain of UniProt Q14738 (Q14738 whole entry): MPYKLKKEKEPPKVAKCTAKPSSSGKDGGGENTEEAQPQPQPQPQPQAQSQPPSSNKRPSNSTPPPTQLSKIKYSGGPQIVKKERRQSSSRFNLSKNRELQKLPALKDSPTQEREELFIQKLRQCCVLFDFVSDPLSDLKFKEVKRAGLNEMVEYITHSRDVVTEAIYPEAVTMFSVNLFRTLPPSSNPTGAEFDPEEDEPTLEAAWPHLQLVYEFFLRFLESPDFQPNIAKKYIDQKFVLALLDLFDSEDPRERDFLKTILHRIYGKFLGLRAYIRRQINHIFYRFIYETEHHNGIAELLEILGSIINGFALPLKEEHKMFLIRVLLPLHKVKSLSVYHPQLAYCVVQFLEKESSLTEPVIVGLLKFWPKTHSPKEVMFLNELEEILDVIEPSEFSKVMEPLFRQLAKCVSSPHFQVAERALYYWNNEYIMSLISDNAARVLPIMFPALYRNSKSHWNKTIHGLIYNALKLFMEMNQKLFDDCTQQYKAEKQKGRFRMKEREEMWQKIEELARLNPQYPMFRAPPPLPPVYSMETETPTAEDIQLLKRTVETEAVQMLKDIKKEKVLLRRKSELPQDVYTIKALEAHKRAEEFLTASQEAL
Chain of UniProt Q5JVS0 (Q5JVS0 whole entry): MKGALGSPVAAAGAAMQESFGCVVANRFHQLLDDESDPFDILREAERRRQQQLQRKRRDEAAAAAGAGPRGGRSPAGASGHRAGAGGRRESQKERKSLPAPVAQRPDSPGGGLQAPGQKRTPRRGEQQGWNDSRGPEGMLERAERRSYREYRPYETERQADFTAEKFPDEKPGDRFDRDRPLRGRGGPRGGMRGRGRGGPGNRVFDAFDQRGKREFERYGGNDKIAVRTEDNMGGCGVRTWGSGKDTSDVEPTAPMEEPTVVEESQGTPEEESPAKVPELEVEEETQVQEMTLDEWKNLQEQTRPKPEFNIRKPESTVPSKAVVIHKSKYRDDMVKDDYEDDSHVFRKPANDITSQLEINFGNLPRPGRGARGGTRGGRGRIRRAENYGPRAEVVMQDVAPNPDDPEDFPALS
Chain of UniProt Q5JPI9 (Q5JPI9 whole entry): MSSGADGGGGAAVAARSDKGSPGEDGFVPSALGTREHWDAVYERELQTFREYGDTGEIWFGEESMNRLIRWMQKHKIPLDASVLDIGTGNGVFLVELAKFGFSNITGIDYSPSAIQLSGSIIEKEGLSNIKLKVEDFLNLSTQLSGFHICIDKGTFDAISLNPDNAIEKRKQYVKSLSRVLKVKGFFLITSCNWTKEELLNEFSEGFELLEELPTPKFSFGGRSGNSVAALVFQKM
Chain of UniProt O95900 (O95900 whole entry): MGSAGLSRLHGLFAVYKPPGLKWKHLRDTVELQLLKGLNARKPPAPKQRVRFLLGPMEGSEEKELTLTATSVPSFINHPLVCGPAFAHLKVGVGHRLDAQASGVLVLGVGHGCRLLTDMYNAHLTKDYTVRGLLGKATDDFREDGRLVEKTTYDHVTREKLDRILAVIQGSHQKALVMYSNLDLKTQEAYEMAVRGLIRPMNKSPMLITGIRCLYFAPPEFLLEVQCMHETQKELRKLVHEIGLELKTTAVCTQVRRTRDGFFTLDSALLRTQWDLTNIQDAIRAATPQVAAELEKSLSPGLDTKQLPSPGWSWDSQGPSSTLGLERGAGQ
Chain of UniProt Q96J84 (Q96J84 whole entry): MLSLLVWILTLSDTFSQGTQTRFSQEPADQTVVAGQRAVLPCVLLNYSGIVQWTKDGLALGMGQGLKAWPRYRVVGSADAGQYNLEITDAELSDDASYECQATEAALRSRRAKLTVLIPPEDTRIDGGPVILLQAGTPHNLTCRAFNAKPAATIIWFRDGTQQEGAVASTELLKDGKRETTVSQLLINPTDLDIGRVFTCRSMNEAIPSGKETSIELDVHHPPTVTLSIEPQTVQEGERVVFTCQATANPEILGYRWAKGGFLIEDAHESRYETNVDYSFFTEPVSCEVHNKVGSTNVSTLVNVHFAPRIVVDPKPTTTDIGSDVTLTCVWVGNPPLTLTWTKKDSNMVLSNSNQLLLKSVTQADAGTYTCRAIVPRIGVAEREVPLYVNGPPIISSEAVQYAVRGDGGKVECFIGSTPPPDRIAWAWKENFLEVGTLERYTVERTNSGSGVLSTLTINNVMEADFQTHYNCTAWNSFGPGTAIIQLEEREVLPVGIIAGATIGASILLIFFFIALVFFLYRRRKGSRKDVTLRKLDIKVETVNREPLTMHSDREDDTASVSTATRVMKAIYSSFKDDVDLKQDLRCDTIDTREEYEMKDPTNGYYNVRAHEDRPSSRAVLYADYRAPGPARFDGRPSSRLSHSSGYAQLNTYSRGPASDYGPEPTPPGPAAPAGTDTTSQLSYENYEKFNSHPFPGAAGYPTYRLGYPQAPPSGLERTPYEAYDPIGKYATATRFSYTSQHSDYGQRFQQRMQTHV
Chain of UniProt O43633 (O43633 whole entry): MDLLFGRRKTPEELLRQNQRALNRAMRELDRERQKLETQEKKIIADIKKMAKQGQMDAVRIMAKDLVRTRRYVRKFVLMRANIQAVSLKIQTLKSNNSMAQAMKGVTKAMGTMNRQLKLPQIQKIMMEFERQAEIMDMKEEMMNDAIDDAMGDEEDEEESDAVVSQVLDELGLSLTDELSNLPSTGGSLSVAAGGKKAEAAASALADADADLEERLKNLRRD

Target	thermal stability z-score
AGPAT5 (UniProt Q9NUQ2)	-0.94
SNX8 (UniProt Q9Y5X2)	-0.149
MRPL15 (UniProt Q9P015)	-0.0219
RBBP5 (UniProt Q15291)	0.518
SH3BGRL3 (UniProt Q9H299)	-0.395
LAMA1 (UniProt P25391)	-1.82
GGCT (UniProt O75223)	1.02
SLC16A1 (UniProt P53985)	1.02
PPP2R5D (UniProt Q14738)	-0.239
RUVBL1 (UniProt Q9Y265)	0.115
OPLAH (UniProt O14841)	0.0614
GGCX (UniProt P38435)	-0.632
GNPDA1 (UniProt P46926)	0.687
CHMP2A (UniProt O43633)	0.185
CCDC51 (UniProt Q96ER9)	-0.14
KIRREL (UniProt Q96J84)	-0.449
VPS26A (UniProt O75436)	-0.395
HSPBP1 (UniProt Q9NZL4)	-0.197

Target	thermal stability z-score
VANGL1 (UniProt Q8TAA9)	0.817
SNTB1 (UniProt Q13884)	1.19
DHX16 (UniProt O60231)	0.345
SART3 (UniProt Q15020)	0.203
CD58 (UniProt P19256)	0.705
LIMCH1 (UniProt Q9UPQ0)	0.151
MAPRE3 (UniProt Q9UPY8)	-0.216
TRUB2 (UniProt O95900)	0.0663
COBLL1 (UniProt Q53SF7)	0.43
HABP4 (UniProt Q5JVS0)	-0.0888
USP16 (UniProt Q9Y5T5)	-0.649
TIMM21 (UniProt Q9BVV7)	0.000788
LPCAT3 (UniProt Q6P1A2)	0.0829
TUBA1C (UniProt Q9BQE3)	0.681
METTL10 (UniProt Q5JPI9)	0.0402
CRTC3 (UniProt Q6UUV7)	-0.025
ADAM9 (UniProt Q13443)	-0.428
GCLC (UniProt P48506)	0.402

compound: O=[As]([O-])(O)O.[K+] [potassium arsenate]; assay: as above; details: HeLa; arsenate concentration 1 mM
Procedure: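 Cellular thermal proteome profiling in HeLa cells treated with 1 mM arsenate for 1 h (DMSO pretreatment), heated to ten temperatures (37-66.3 °C). Soluble protein was quantified by TMT mass spectrometry relative to DMSO controls; the thermal stability score was transformed to a z-score; mean of n = 3 experiments.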

Target	thermal stability z-score
MAP4K5 (UniProt Q9Y4K4)	0.00285
CEP152 (UniProt O94986)	0.269
PRKCSH (UniProt P14314)	0.768
CENPV (UniProt Q7Z7K6)	-0.0535
RPP40 (UniProt O75818)	-1.15
BRE (UniProt Q9NXR7)	0.319
MLLT1 (UniProt Q03111)	-0.0158
LMNB2 (UniProt Q03252)	0.839
ZC3HAV1 (UniProt Q7Z2W4)	0.156
RABGGTA (UniProt Q92696)	-0.000862
ARMT1 (UniProt Q9H993)	0.195
SCYL1 (UniProt Q96KG9)	-0.278
NOMO1 (UniProt Q15155)	0.353
TOMM22 (UniProt Q9NS69)	0.468
PTP4A1 (UniProt Q93096)	0.626
MAPKAPK3 (UniProt Q16644)	-0.508
CHKA (UniProt P35790)	-1.4
HNRNPLL|HNRPLL	-0.917
LTBR (UniProt P36941)	0.85
ATP11C (UniProt Q8NB49)	-1.13
ME1 (UniProt P48163)	-0.207
PLEKHA2 (UniProt Q9HB19)	-0.321
NADSYN1 (UniProt Q6IA69)	-0.0415
KIAA0319L (UniProt Q8IZA0)	-0.349

Target	thermal stability z-score
GBAS (UniProt O75323)	-0.187
MTOR (UniProt P42345)	0.0121
GINS1 (UniProt Q14691)	-0.404
TGS1 (UniProt Q96RS0)	1.17
GBA (UniProt P04062)	0.33
ERBB2 (UniProt P04626)	0.0442
AARS2 (UniProt Q5JTZ9)	-0.095
GFPT2 (UniProt O94808)	-0.593
FGFR1OP2 (UniProt Q9NVK5)	0.0446
INPP5J (UniProt Q15735)	-0.471
TXNRD1 (UniProt Q16881)	4.21
AGPAT5 (UniProt Q9NUQ2)	-0.259
SNX8 (UniProt Q9Y5X2)	-0.369
MRPL15 (UniProt Q9P015)	-0.33
RBBP5 (UniProt Q15291)	-0.769
SH3BGRL3 (UniProt Q9H299)	0.000903
LAMA1 (UniProt P25391)	1.13
GGCT (UniProt O75223)	1.11
SLC16A1 (UniProt P53985)	0.385
PPP2R5D (UniProt Q14738)	0.228
RUVBL1 (UniProt Q9Y265)	-0.662
OPLAH (UniProt O14841)	-0.0405
GGCX (UniProt P38435)	-0.0562
GNPDA1 (UniProt P46926)	0.272

Target	thermal stability z-score
CHMP2A (UniProt O43633)	0.392
CCDC51 (UniProt Q96ER9)	-0.324
KIRREL (UniProt Q96J84)	0.892
VPS26A (UniProt O75436)	0.335
HSPBP1 (UniProt Q9NZL4)	0.872
VANGL1 (UniProt Q8TAA9)	-0.242
SNTB1 (UniProt Q13884)	1.29
DHX16 (UniProt O60231)	-1.81
SART3 (UniProt Q15020)	-1.04
CD58 (UniProt P19256)	0.484
LIMCH1 (UniProt Q9UPQ0)	0.542
MAPRE3 (UniProt Q9UPY8)	-0.102
TRUB2 (UniProt O95900)	-0.133
COBLL1 (UniProt Q53SF7)	-0.608
HABP4 (UniProt Q5JVS0)	-0.0745
USP16 (UniProt Q9Y5T5)	0.229
TIMM21 (UniProt Q9BVV7)	0.255
LPCAT3 (UniProt Q6P1A2)	0.724
TUBA1C (UniProt Q9BQE3)	-0.265
METTL10 (UniProt Q5JPI9)	0.206
CRTC3 (UniProt Q6UUV7)	0.1
ADAM9 (UniProt Q13443)	0.397
GCLC (UniProt P48506)	1.56
